41 compounds from US11014911B2, “CDK2 inhibitors” (Pfizer Inc., priority 2019, dated 2021) can be followed below.

Experiment [1] deals with CDK2/Cyclin E1 full length (Homo sapiens (Human), UniProt P24941). The experiment in a line: CDK2/Cyclin E1 full length mobility shift assay. The format is biochemical.
Experiment [2] addresses GSK3β (H350L) (Homo sapiens (Human), UniProt P49841). The experiment in a line: biochemical. The settings on record: GSK3β Ki (nM).
Description: The assay was initiated with the addition of ATP, following 15 minutes pre-incubation of enzyme and inhibitor at room temperature in the reaction mixture. The reaction was stopped after 30 minutes at room temperature by the addition of 50 μL of 80 mM EDTA.

GSK3β (H350L), sequence (P49841 whole entry, stated change not applied): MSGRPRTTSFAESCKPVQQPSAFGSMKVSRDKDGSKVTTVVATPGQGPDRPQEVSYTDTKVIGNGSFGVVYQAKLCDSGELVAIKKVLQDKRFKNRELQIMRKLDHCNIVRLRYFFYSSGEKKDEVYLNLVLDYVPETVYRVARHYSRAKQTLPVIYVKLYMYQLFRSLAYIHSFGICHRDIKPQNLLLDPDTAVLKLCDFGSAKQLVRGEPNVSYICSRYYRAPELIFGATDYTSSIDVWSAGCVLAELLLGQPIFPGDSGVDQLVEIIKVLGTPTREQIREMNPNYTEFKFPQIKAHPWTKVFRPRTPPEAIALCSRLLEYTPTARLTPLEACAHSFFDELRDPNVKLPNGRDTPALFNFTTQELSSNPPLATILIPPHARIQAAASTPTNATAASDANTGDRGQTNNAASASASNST

What is called Ki is the dissociation constant of the complex between target and ligand, obtained from inhibition or displacement. With `CC(CC(F)(F)F)NC(=O)O[C@@H]1CC[C@H](c2cc(NC(=O)Cc3cnco3)n[nH]2)C1` (single isomer, unassigned) [Example 84], the values for the inhibition constant Ki in experiment [1] and in experiment [2] were 0.1 nM and 12 nM, respectively.
`CC(CC(F)(F)F)NC(=O)O[C@@H]1CC[C@H](c2cc(NC(=O)Cc3ccno3)n[nH]2)C1` (single isomer, unassigned) [Example 86]: the Ki in experiment [1] was 0.25 nM; in experiment [2] it was 12.9 nM.
For `CC(CC(F)(F)F)N(C)C(=O)O[C@@H]1CC[C@H](c2cc(NC(=O)Cc3ccno3)n[nH]2)C1` (single isomer, unassigned) [Example 90] the same measures were 0.23 nM and 2.36 nM.
The like results for `Cc1cnc(CC(=O)Nc2cc([C@H]3CC[C@@H](OC(=O)NC(C)CC(F)F)C3)[nH]n2)o1` (single isomer, unassigned) [Example 97] were, in that order, 0.39 nM and 18 nM.
The like results for `COc1cc(CC(=O)Nc2cc([C@H]3CC[C@@H](OC(=O)NC(C)CC(F)F)C3)[nH]n2)ccn1` (single isomer, unassigned) [Example 98] were, in that order, 0.33 nM and 21.6 nM.
For `CC1(NC(=O)O[C@@H]2CC[C@H](c3cc(NC(=O)Cc4cc(F)cc(F)c4)n[nH]3)C2)CCOC1` (single isomer, unassigned) [Example 120], the inhibition constant (Ki) in experiment [1] is 0.09 nM; in experiment [2], 34.9 nM.
Regarding `CC1(NC(=O)O[C@@H]2CC[C@H](c3cc(NC(=O)Cc4cc(F)cc(F)c4)n[nH]3)C2)CCOC1` (single isomer, unassigned) [Example 121], the inhibition constant (Ki) in experiment [1] was 0.08 nM; in experiment [2], 19.4 nM.
For `COc1ccc(CC(=O)Nc2cc([C@H]3CC[C@@H](OC(=O)NC4(C)CCOC4)C3)[nH]n2)cn1` (single isomer, unassigned) [Example 122] the same measures were 0.22 nM and 12.7 nM.
For `COc1ccc(CC(=O)Nc2cc([C@H]3CC[C@@H](OC(=O)NC4(C)CCOC4)C3)[nH]n2)cn1` (single isomer, unassigned) [Example 123] the same measures were 0.13 nM and 8.87 nM.
Regarding `CC1(NC(=O)O[C@@H]2CC[C@H](c3cc(NC(=O)Cc4ccccc4)n[nH]3)C2)CCOC1` (single isomer, unassigned) [Example 124], the Ki was 0.19 nM in experiment [1] and 80.7 nM in experiment [2].
For `COc1ncc(CC(=O)Nc2cc([C@H]3CC[C@@H](OC(=O)NC4(C)CCOC4)C3)[nH]n2)s1` (single isomer, unassigned) [Example 126] the same measures were 0.27 nM and 26.6 nM.
The like results for `COc1ncc(CC(=O)Nc2cc([C@H]3CC[C@@H](OC(=O)NC4(C)CCOC4)C3)[nH]n2)s1` (single isomer, unassigned) [Example 127] were, in that order, 0.23 nM and 20.1 nM.
For `COc1ccc(CC(=O)Nc2cc([C@H]3CC[C@@H](OC(=O)N4CCC4C)C3)[nH]n2)cn1` (single isomer, unassigned) [Example 151] the same measures were 0.15 nM and 3.89 nM.
For `COc1cc(CC(=O)Nc2cc([C@H]3CC[C@@H](OC(=O)N4CCC4C)C3)[nH]n2)ccn1` (single isomer, unassigned) [Example 153], the Ki in experiment [1] came to 0.22 nM; in experiment [2], 9.15 nM.
With `COc1cc(CC(=O)Nc2cc([C@H]3CC[C@@H](OC(=O)N4C[C@@H](C#N)[C@@H]4C)C3)[nH]n2)ccn1` (single isomer, unassigned) [Example 155], the values for the Ki in experiment [1] and in experiment [2] were 0.13 nM and 1.63 nM, respectively.
For `COc1ccc(CC(=O)Nc2cc([C@H]3CC[C@@H](OC(=O)N4C[C@@H](C#N)[C@@H]4C)C3)[nH]n2)cn1` (single isomer, unassigned) [Example 158] the same measures were 0.17 nM and 0.78 nM.
On to `Cc1ncc(CC(=O)Nc2cc([C@H]3CC[C@@H](OC(=O)N4C[C@@H](C#N)[C@@H]4C)C3)[nH]n2)s1` (single isomer, unassigned) [Example 160], for which the Ki in experiment [1] is 0.15 nM; in experiment [2], 1.72 nM.
For the compound `C[C@H]1[C@H](C#N)CN1C(=O)O[C@@H]1CC[C@H](c2cc(NC(=O)Cc3ccccc3)n[nH]2)C1` (single isomer, unassigned) [Example 161], the figures for the Ki in experiment [1] and in experiment [2] were 0.15 nM and 5.93 nM, respectively.
Regarding `COc1ccc(S(C)(=O)=O)c(CC(=O)Nc2cc([C@H]3CC[C@@H](OC(=O)NC(C)C(F)(F)F)C3)[nH]n2)c1` (single isomer, unassigned) [Example 291], the Ki in experiment [1] is 0.43 nM; in experiment [2], greater than 47.6 nM.
For `C[C@H](F)[C@H](C)NC(=O)O[C@@H]1CC[C@H](c2cc(NC(=O)Cc3cnn(C)c3)n[nH]2)C1` (single isomer, unassigned) [Example 382, (1R,3S)-3-(3-{[(1-methyl-1H-pyrazol-4-yl)acetyl]amino}-1H-pyrazol-5-yl)cyclopentyl [(2S*,3S*)-3-fluorobutan-2-yl]carbamate] the same measures were 0.77 nM and 74.2 nM.
Consider `COc1cc(CC(=O)Nc2cc([C@H]3CC[C@@H](OC(=O)N[C@@H](C)[C@H](C)F)C3)[nH]n2)ccn1` (single isomer, unassigned) [Example 385, (1R,3S)-3-(3-{[(2-methoxypyridin-4-yl)acetyl]amino}-1H-pyrazol-5-yl)cyclopentyl [(2S*,3S*)-3-fluorobutan-2-yl]carbamate], for which the Ki in experiment [1] was determined as 0.52 nM; in experiment [2], 25.9 nM.
For `CC(CC(F)F)NC(=O)O[C@@H]1CC[C@H](c2cc(NC(=O)Cc3cnn(C)c3)n[nH]2)C1` (single isomer, unassigned) [Example 386] the same measures were 0.66 nM and 45.9 nM.
Consider `Cc1ccc(CC(=O)Nc2cc([C@H]3CC[C@@H](OC(=O)NC(C)C(C)(F)F)C3)[nH]n2)cn1` (single isomer, unassigned) [Example 388], for which the inhibition constant Ki amounted to 2.34 nM in experiment [1] and 36.9 nM in experiment [2].
For `Cc1ccc(CC(=O)Nc2cc([C@H]3CC[C@@H](OC(=O)NC(C)C(C)(F)F)C3)[nH]n2)cn1` (single isomer, unassigned) [Example 389] the same measures were 0.83 nM and 18.3 nM.
For `Cc1ncc(CC(=O)Nc2cc([C@H]3CC[C@@H](OC(=O)NC(C)C(C)(F)F)C3)[nH]n2)s1` (single isomer, unassigned) [Example 391] the same measures were 1.38 nM and 38 nM.
With `COc1cc(CC(=O)Nc2cc([C@H]3CC[C@@H](OC(=O)NC(C)C(C)(F)F)C3)[nH]n2)ccn1` (single isomer, unassigned) [Example 393], the inhibitory constant (Ki) was determined as 0.97 nM in experiment [1] and 34 nM in experiment [2].
The like results for `CCC(NC(=O)O[C@@H]1CC[C@H](c2cc(NC(=O)Cc3cc(C)no3)n[nH]2)C1)C(F)(F)F` (single isomer, unassigned) [Example 396] were, in that order, 2.1 nM and 139 nM.
Consider `CCC(NC(=O)O[C@@H]1CC[C@H](c2cc(NC(=O)Cc3cc(C)no3)n[nH]2)C1)C(F)(F)F` (single isomer, unassigned) [Example 397], for which the Ki was found to be 1.87 nM in experiment [1] and 155 nM in experiment [2].
As for `CCC(NC(=O)O[C@@H]1CC[C@H](c2cc(NC(=O)Cc3ccc(C)nc3)n[nH]2)C1)C(F)(F)F` (single isomer, unassigned) [Example 398], the inhibition constant Ki in experiment [1] worked out at 0.65 nM; in experiment [2] it was 44.1 nM.
The like results for `CCC(NC(=O)O[C@@H]1CC[C@H](c2cc(NC(=O)Cc3ccc(C)nc3)n[nH]2)C1)C(F)(F)F` (single isomer, unassigned) [Example 399] were, in that order, 0.47 nM and 68.8 nM.
As to `Cc1c(CC(=O)Nc2cc([C@H]3CC[C@@H](OC(=O)NC(C)CC(F)(F)F)C3)[nH]n2)cnn1C` (single isomer, unassigned) [Example 401], the Ki came to 0.34 nM in experiment [1] and 32.9 nM in experiment [2].
For `CCC(NC(=O)O[C@@H]1CC[C@H](c2cc(NC(=O)Cc3cnc(C)s3)n[nH]2)C1)C(F)(F)F` (single isomer, unassigned) [Example 403] the same measures were 1.76 nM and 76.1 nM.
For `CCC(NC(=O)O[C@@H]1CC[C@H](c2cc(NC(=O)Cc3cnc(C)s3)n[nH]2)C1)C(F)(F)F` (single isomer, unassigned) [Example 404] the same measures were 1.38 nM and 84.3 nM.
For `CCC(NC(=O)O[C@@H]1CC[C@H](c2cc(NC(=O)Cc3ccnc(OC)c3)n[nH]2)C1)C(F)(F)F` (single isomer, unassigned) [Example 405] the same measures were 1.37 nM and 97.9 nM.
Consider `CCC(NC(=O)O[C@@H]1CC[C@H](c2cc(NC(=O)Cc3ccnc(OC)c3)n[nH]2)C1)C(F)(F)F` (single isomer, unassigned) [Example 406], for which the Ki in experiment [1] was determined as 1.81 nM; in experiment [2], 73.3 nM.
The like results for `CC(CC(F)(F)F)NC(=O)O[C@@H]1CC[C@H](c2cc(NC(=O)Cc3cnn(C(C)C)c3)n[nH]2)C1` (single isomer, unassigned) [Example 408] were, in that order, 0.29 nM and 17.9 nM.
Regarding `CC(CC(F)(F)F)NC(=O)O[C@@H]1CC[C@H](c2cc(NC(=O)c3ccnn3CCN(C)C)[nH]n2)C1` (single isomer, unassigned) [Example 410], the Ki in experiment [1] stood at 0.42 nM; in experiment [2] it was 55.5 nM.
As to `CC(CC(F)(F)F)N(C)C(=O)O[C@@H]1CC[C@H](c2cc(NC(=O)Cc3cnn(C)c3)n[nH]2)C1` (single isomer, unassigned) [Example 413], the inhibition constant Ki in experiment [1] turned out to be 0.44 nM; in experiment [2] it was 14.7 nM.
For `CC(CC(F)(F)F)N(C)C(=O)O[C@@H]1CC[C@H](c2cc(NC(=O)Cc3cnn(C)c3)n[nH]2)C1` (single isomer, unassigned) [Example 414] the same measures were 0.42 nM and 3.44 nM.
The like results for `CC1(NC(=O)O[C@@H]2CC[C@H](c3cc(NC(=O)Cc4ccno4)n[nH]3)C2)CCOC1` (single isomer, unassigned) [Example 473] were, in that order, 0.36 nM and 66.2 nM.
Regarding `Cc1cnc(CC(=O)Nc2cc([C@@H]3CC[C@H](OC(=O)NC4(C)CCOC4)C3)[nH]n2)o1` (single isomer, unassigned) [Example 475], the figures for the inhibitory constant (Ki) in experiment [1] and in experiment [2] were 0.83 nM and 23.9 nM, respectively.
